Data on 32 molecules can be found in ChEMBL document CHEMBL1201862, “PubChem BioAssay data set” (2004).

Test systems include KM-20L2; SNB-78; M19-MEL; DLD-1; XF498; HOP-18; MDA-N; MCF7.
Assay in all cases: DTP human tumour cell line panel, 48 h

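Following 48 hours of exposure in 96-well plates, responses at five concentrations were used to interpolate endpoints linearly. At the GI50, growth is halved.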 The source made the active and inactive calls. No stated cut-off is given here; in the data, active = GI50 up to about 1.1 µM and inactive = higher.

Broadly, the GI50 is the concentration giving 50% growth inhibition. For `O=C(/N=c1/[nH]/c(=N/C(=O)c2ccccc2)ss1)c1ccccc1`, the GI50 in the test on KM-20L2 is 29.5 µM (inactive); with SNB-78, 48.1 µM (inactive); in the test with M19-MEL, 33.6 µM (inactive).
On to `CCCc1c(C(=O)OCC)[nH]c(C(=O)CCC(=O)c2[nH]c(C(=O)OCC)c(CCC)c2C(=O)OCC)c1C(=O)OCC`, for which the GI50 in the test on DLD-1 is > 100 µM (inactive); in the test with KM-20L2, > 100 µM (inactive); in the test with SNB-78, > 100 µM (inactive); with M19-MEL, > 100 µM (inactive); in the test with XF498, 54.3 µM (inactive); in the test with HOP-18, > 100 µM (inactive).
Take `CC1CC(c2cccc3c2OCO3)=Nc2ccccc2S1` (configuration not stated): the GI50 in the test on DLD-1, in the test with KM-20L2, in the test with SNB-78, in the test on M19-MEL and in the test on XF498 was > 100 µM (inactive) in each case.
In the case of `CC(=O)OCC1OC(n2cc(F)c(=O)[nH]c2=O)C(NC(=O)N(CCCl)N=O)C(OC(C)=O)C1OC(C)=O` (configuration not stated), the GI50 in the test with DLD-1 was > 100 µM (inactive); with KM-20L2, > 100 µM (inactive); in the test on SNB-78, > 100 µM (inactive); in the test on M19-MEL it was > 100 µM (inactive); in the test on XF498 it was 36.4 µM (inactive); in the test on HOP-18, > 100 µM (inactive).
Regarding `COC(=O)C(C(=O)C(=O)Nc1ccc(C)cc1)c1nc2ccc([N+](=O)[O-])cc2nc1O` (configuration not stated), the GI50 in the test on DLD-1, in the test with KM-20L2, in the test with SNB-78, in the test with M19-MEL, in the test on XF498 and in the test with HOP-18 was > 100 µM (inactive) each time.
In the case of `O=C1CCC(=O)c2sccc2N1`, the GI50 in the test on DLD-1, in the test with KM-20L2, in the test on SNB-78, in the test on M19-MEL, with XF498 and in the test on HOP-18 was > 100 µM (inactive) each time.
On to `Nc1ncnc2c1nnn2C1C=C(CO)C(O)C1O` (configuration not stated), for which the GI50 in the test on DLD-1 was 35.2 µM (inactive); in the test with KM-20L2, 50.5 µM (inactive); in the test on SNB-78, > 86.7 µM (inactive); in the test with M19-MEL, > 79.1 µM (inactive); with XF498, > 100 µM (inactive); in the test with HOP-18, 95.3 µM (inactive).
Take `CN(C)CC/C(=N\Nc1ccc(Cl)cc1)c1ccccc1`: the GI50 is 0.409 µM (active) with DLD-1; 0.176 µM (active) with KM-20L2; 1.38 µM (inactive) with SNB-78; 1.7 µM (inactive) in the test with M19-MEL; 2.13 µM (inactive) with HOP-18.
As for `[O-]c1c2cc(-[n+]3c(-c4ccccc4)cc(-c4ccccc4)cc3-c3ccccc3)cc1CO[C@@H](c1ccccc1)[C@H](c1ccccc1)OCc1cccc(n1)CO[C@@H](c1ccccc1)[C@H](c1ccccc1)OC2`, the values for the GI50 with MDA-N and in the test on MCF7 were 0.0548 µM (active) and 0.0388 µM (active), respectively.
For the molecule `CN(C)c1ccc(-c2nc(N)nc3c2CCCC3)cc1`, the GI50 in the test with DLD-1 was 54.5 µM (inactive); in the test on KM-20L2 it was 57.8 µM (inactive); with SNB-78, 64.7 µM (inactive); with M19-MEL, 45 µM (inactive); in the test with XF498, 19.4 µM (inactive).
Regarding `CCCC(=O)Nc1cc(/C=C/C(=O)N2CC(CCl)c3c2cc(OC(C)=O)c2[nH]cc(C)c32)n(C)c1` (configuration not stated), the GI50 with MDA-N is 5.12e-05 µM (active); with MCF7, 2.94e-05 µM (active).
With `COc1cc(/C=C(\C#N)C(=O)c2ccccc2)ccc1OCc1ccccc1`, the GI50 in the test on KM-20L2, in the test on SNB-78, in the test on M19-MEL and in the test with XF498 was > 100 µM (inactive) in each case.
`CN(C)Cc1cc(C(=O)/C=C/c2ccc(/C=C/C(=O)c3cc(CN(C)C)c(O)c(CN(C)C)c3)cc2)cc(CN(C)C)c1O`: the results for the GI50 with MDA-N and with MCF7 were > 10 µM (inactive) and 9.42 µM (inactive), respectively.
For the molecule `O=C(N/C(=C\c1ccccc1O)c1nc2ccccc2[nH]1)c1ccccc1`, the GI50 in the test on KM-20L2 was > 100 µM (inactive); in the test with SNB-78, 43.5 µM (inactive); in the test on M19-MEL it was > 100 µM (inactive); in the test with XF498 it was > 100 µM (inactive); with HOP-18, 63.5 µM (inactive).
With `CCCCCCNC(=O)c1cc(NCc2cc(OC)ccc2OC)ccc1O`, the GI50 in the test with MDA-N was 18.9 µM (inactive); in the test on MCF7, 22.1 µM (inactive).
Take `C=CCOCn1ccc(N)nc1=O`: the GI50 in the test with MDA-N and in the test with MCF7 was > 100 µM (inactive) throughout.
For the molecule `CCCSC1=N/C(=C\c2ccco2)C(=O)N1`, the GI50 is > 100 µM (inactive) with MDA-N and 36 µM (inactive) in the test with MCF7.
Regarding `Cc1ccc(CC(=O)Nc2ccc(NC(=O)/C=C/NC(=O)/C=C/c3ccc(-c4ccccc4)cc3)cc2C(=O)c2ccccc2)cc1`, the GI50 was 2.5 µM (inactive) in the test on MDA-N and 1.72 µM (inactive) in the test with MCF7.
Take `C[C@@H]1S[C@H](c2c(F)cccc2Cl)n2c1nc1ccccc12`: the figures for the GI50 with MDA-N and in the test on MCF7 were 7.62 µM (inactive) and 25.2 µM (inactive), respectively.
On to `CCCCCCc1cc2cc(-c3cn4ccccc4n3)c(=O)oc2cc1O`, for which the GI50 was 6.17 µM (inactive) in the test on MDA-N and 5.43 µM (inactive) in the test on MCF7.
In the same order, the values of `COc1ccc(NC/C=C/C(=C/COC(C)=O)OC(C)=O)cc1` are 2.05 µM (inactive) and 2.63 µM (inactive).
Consider `CC(=O)OCC1OC(O[C@@H]2c3c(O)c4c(c(O)c3C3=C(NN(c5ccc([N+](=O)[O-])cc5[N+](=O)[O-])[Se]3=O)[C@@]2(C)O)C(=O)c2ccccc2C4=O)C(OC(C)=O)C(OC(C)=O)C1OC(C)=O` (some centres not stated), for which the GI50 is 0.273 µM (active) in the test with MDA-N and 0.207 µM (active) with MCF7.
As for `COc1cc(C(c2cccc3ccccc23)N2C(=O)CCC2C(=O)NCc2ccccc2)cc(OC)c1OC` (configuration not stated), the GI50 in the test with MDA-N and in the test on MCF7 was > 100 µM (inactive) throughout.
For `NC(=O)NN=C1Cc2ccccc2C1`, the GI50 in the test on MDA-N and with MCF7 was > 100 µM (inactive) each time.
For `CS/C(=N/C#N)NCCc1c[nH]c2ccccc12`, the GI50 in the test with DLD-1 was > 100 µM (inactive); in the test on KM-20L2, 44.9 µM (inactive); in the test on SNB-78, > 100 µM (inactive); in the test with M19-MEL, > 100 µM (inactive); in the test with XF498 it was 34.8 µM (inactive).
Consider `O=C(CC(CC(=O)Oc1c(Br)cc(Br)cc1C(=O)O)C(=O)Oc1c(Br)cc(Br)cc1C(=O)O)Oc1c(Br)cc(Br)cc1C(=O)O`, for which the GI50 is 65 µM (inactive) with DLD-1; 56.6 µM (inactive) in the test on KM-20L2; 49.2 µM (inactive) in the test with SNB-78; > 100 µM (inactive) in the test on M19-MEL; 0.504 µM (active) in the test with XF498.
In the case of `CC(C)[C@@H](COC(C)(C)C)/N=C/N1CCc2c([nH]c3ccccc23)C1`, the GI50 in the test with DLD-1 is > 100 µM (inactive); in the test on KM-20L2 it was > 100 µM (inactive); with SNB-78, > 100 µM (inactive); with XF498 it was 36.1 µM (inactive).
As to `CCN(CC)CCC(=O)c1ccc(Cl)c(Cl)c1`, the figures for the GI50 in the test with MDA-N and in the test on MCF7 were > 10 µM (inactive) and 12.8 µM (inactive), respectively.
With `Cc1ccc2c3ccc4c(c3n(C)c2c1)C(=O)C=CC4=O`, the figures for the GI50 in the test with MDA-N and in the test with MCF7 were 4.94 µM (inactive) and 3.29 µM (inactive), respectively.
For `CCOC(=O)c1nc2ccccc2nc1Oc1cc(OC)cc(OC)c1`, the GI50 in the test on MDA-N and in the test on MCF7 was > 100 µM (inactive) in each case.
For the molecule `C=CC1(CBr)CCC(C(C)(C)Br)O1` (configuration not stated), the values for the GI50 in the test on MDA-N and in the test on MCF7 were 8.57 µM (inactive) and 15.6 µM (inactive), respectively.
For `Cc1ccc(-c2nc(Cc3n[nH]c(-c4ccc(C)cc4)n3)n[nH]2)cc1`, in that order: > 100 µM (inactive) and > 100 µM (inactive).
